Laboratory results from US20130244999A1, “Substituted Heterocyclic Compounds” (Incyte Corporation, priority 2008, published 2013).

Target: T1, histamine H4 receptor (Homo sapiens, UniProt Q9H3N8)
T1 construct: expressed in transfected cells; host or cells: HEK293SFM cells (membrane preparation)
Experiment: Inhibition of histamine H4 receptor (Table A1; H4 membrane binding assay)
Details: for IC50: histamine H4 receptor, "> a" = exceeds experiment limit
Method in brief: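 Membranes came from recombinant HEK293SFM cells expressing human H4, homogenized in 50 mM Tris-HCl pH 7.5 with protease inhibitors. Nonspecific binding was set with 1000× unlabeled ligand. Bound radioligand was separated on PEI-treated GF/B filters and counted by liquid scintillation.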

T1 sequence (Q9H3N8 whole entry): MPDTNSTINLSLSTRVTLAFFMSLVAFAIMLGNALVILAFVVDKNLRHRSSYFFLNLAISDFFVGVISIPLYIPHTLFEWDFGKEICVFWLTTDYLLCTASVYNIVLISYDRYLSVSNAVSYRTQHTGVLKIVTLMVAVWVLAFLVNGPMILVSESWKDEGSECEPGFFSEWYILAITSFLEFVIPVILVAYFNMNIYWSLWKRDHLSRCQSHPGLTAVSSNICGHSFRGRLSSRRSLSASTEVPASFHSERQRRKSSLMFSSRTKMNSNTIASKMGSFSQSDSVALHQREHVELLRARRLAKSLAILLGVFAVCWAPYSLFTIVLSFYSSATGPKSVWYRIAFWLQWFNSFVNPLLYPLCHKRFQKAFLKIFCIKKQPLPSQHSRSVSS

Row | SMILES | IC50 [nM] | inhibition at 1 µM [%]
1 | CC1Cc2ccc(C3CCN(C(=O)C4CC4)CC3)cc2CN1c1cc(N2CCN(C)CC2)nc(N)n1 (stereo not drawn) [Example 150, 4-[7-[1-(Cyclopropylcarbonyl)piperidin-4-yl]-3-methyl-3,4-dihydroisoquinolin-2(1H)-yl]-6-(4-methylpiperazin-1-yl)pyrimidin-2-amine] | 22.5 | 
2 | CN1CCN(c2cc(N3CCc4ccc(-c5cnc(N6CCNCC6)nc5)cc4C3)nc(N)n2)CC1 [Example 9, 4-(4-Methylpiperazin-1-yl)-6-[7-(2-piperazin-1-yipyrimidin-5-yl)-3,4-dihydroisoquinolin-2(1H)-yl]pyrimidin-2-amine] | 89 | 
3 | CN1CCN(c2cc(N3CCc4ccc(C(=O)N(C)Cc5cccc(F)c5)cc4C3)nc(N)n2)CC1 [Example 25, 2-[2-Amino-6-(4-methylpiperazin-1-yl)pyrimidin-4-yl]-N-(3-fluorobenzyl)-N-methyl-1,2,3,4-tetrahydroisoquinoline-7-carboxamide] | 260 | 
4 | CC1Cc2ccc(-c3ccc(C(=O)N4CCC(N(C)C)C4)nc3)cc2CN1c1cc(N2CCN(C)CC2)nc(N)n1 (stereo not drawn) [Example 57, 4-[7-(6-{[3-(Dimethylamino)pyrrolidin-1-yl]carbonyl}pyridin-3-yl)-3-methyl-3,4-dihydroisoquinolin-2(1H)-yl]-6-(4-methylpiperazin-1-yl)pyrimidin-2-amine] | 119 | 
5 | CN1CCN(c2cc(N3CCc4ccc(-c5nc(C(=O)N6CCCC6)cs5)cc4C3)nc(N)n2)CC1 [Example 48, 4-(4-Methylpiperazin-1-yl)-6-[7-[4-(pyrrolidin-1-ylcarbonyl)-1,3-thiazol-2-yl]-3,4-dihydroisoquinolin-2(1H)-yl]pyrimidin-2-amine] | 200 | 
6 | CN1CCN(c2cc(N3CCc4ccc(-c5cnn(C)c5)cc4C3)nc(N)n2)CC1 [Example 4, 4-(4-Methylpiperazin-1-yl)-6-[7-(1-methyl-1H-pyrazol-4-yl)-3,4-dihydroisoquinolin-2(1H)-yl]pyrimidin-2-amine] | 80 | 
7 | CC1Cc2ccc(-c3cnn(CC4(C#N)CC4)c3)cc2CN1c1cc(N2CCN(C)CC2)nc(N)n1 (single isomer, unassigned) [Example 97B, 1-[(4-{2-[2-amino-6-(4-methylpiperazin-1-yl)pyrimidin-4-yl]-3-methyl-1,2,3,4-tetrahydroisoquinolin-7-yl}-1H-pyrazol-1-yl)methyl]cyclopropanecarbonitrile] |  | 72
8 | CN1CCN(c2cc(N3Cc4ccccc4C[C@H]3CO)nc(N)n2)CC1 [Example 15, {(3S)-2-[2-Amino-6-(4-methylpiperazin-1-yl)pyrimidin-4-yl]-1,2,3,4-tetrahydroisoquinolin-3-yl}methanol] | 145 | 
9 | CN1CCN(c2cc(N3CCc4ccc(N5CCN(C(=O)c6ccco6)CC5)cc4C3)nc(N)n2)CC1 [Example 32, 4-{7-[4-(2-Furoyl)piperazin-1-yl]-3,4-dihydroisoquinolin-2(1H)-yl}-6-(4-methylpiperazin-1-yl)pyrimidin-2-amine] | 178 | 
10 | CCNC(=O)c1cc(-c2ccc3c(c2)CN(c2cc(N4CCN(C)CC4)nc(N)n2)C(C)C3)cn1C (single isomer, unassigned) [Example 88B, 4-{2-[2-Amino-6-(4-methylpiperazin-1-yl)pyrimidin-4-yl]-3-methyl-1,2,3,4-tetrahydroisoquinolin-7-yl}-N-ethyl-1-methyl-1H-pyrrole-2-carboxamide] |  | 74
11 | CC1Cc2ccc(-c3cnn(CC4CCCO4)c3)cc2CN1c1cc(N2CCN(C)CC2)nc(N)n1 (single isomer, unassigned) [Example 99A, 4-(4-Methylpiperazin-1-yl)-6-[3-methyl-7-[1-(tetrahydrofuran-2-ylmethyl)-1H-pyrazol-4-yl]-3,4-dihydroisoquinolin-2(1H)-yl]pyrimidin-2-amine] | 83 | 
12 | CNC(=O)c1ccc(-c2ccc3c(c2)CN(c2cc(N4CCN(C)CC4)nc(N)n2)C(CO)C3)cn1 (single isomer, unassigned) [Example 81B, 5-[2-[2-amino-6-(4-methylpiperazin-1-yl)pyrimidin-4-yl]-3-(hydroxymethyl)-1,2,3,4-tetrahydroisoquinolin-7-yl]-N-methylpyridine-2-carboxamide] | 34 | 
13 | CC1Cc2ccc(-c3ccc(C(=O)N4CCC4)nc3)cc2CN1c1cc(N2CCN(C)CC2)nc(N)n1 (single isomer, unassigned) [Example 53A, 4-[7-[6-(azetidin-1-ylcarbonyl)pyridin-3-yl]-3-methyl-3,4-dihydroLsoquinolin-2(1H)-yl]-6-(4-methylpiperazin-1-yl)pyrimidin-2-amine] | 201 | 
14 | CC1Cc2ccc(C3CCN(C(=O)CC4CCCC4)CC3)cc2CN1c1cc(N2CCN(C)CC2)nc(N)n1 (stereo not drawn) [Example 138, 4-[7-[1-(Cyclopentylacetyl)piperidin-4-yl]-3-methyl-3,4-dihydroisoquinolin-2(1H)-yl]-6-(4-methylpiperazin-1-yl)pyrimidin-2-amine] | 64 | 
15 | CNC(=O)c1ccc(-c2ccc3c(c2)CN(c2cc(N4CCN(C)CC4)nc(N)n2)C(CO)C3)cn1 (single isomer, unassigned) [Example 81A, 5-[2-[2-amino-6-(4-methylpiperazin-1-yl)pyrimidin-4-yl]-3-(hydroxymethyl)-1,2,3,4-tetrahydroisoquinolin-7-yl]-N-methylpyridine-2-carboxamide] | 75 | 
16 | CC1Cc2ccc(-c3cnn(C)c3)cc2CN1c1cc(N2CCN3CCCC3C2)nc(N)n1 (stereo not drawn) [Example 126, 4-(Hexahydropyrrolo[1,2-a]pyrazin-2(1H)-yl)-6-[3-methyl-7-(1-methyl-1H-pyrazol-4-yl)-3,4-dihydroisoquinolin-2(1H)-yl]pyrimidin-2-amine] | 66 | 
17 | CC1Cc2ccc(-c3cnn(CC4CC4)c3)cc2CN1c1cc(N2CCN(C)CC2)nc(N)n1 (single isomer, unassigned) [Example 102, 4-[7-[1-(Cyclopropylmethyl)-1H-pyrazol-4-yl]-3-methyl-3,4-dihydroisoquinolin-2(1H)-yl]-6-(4-methylpiperazin-1-yl)pyrimidin-2-amine] | 42 | 
18 | CC(=O)N1CCC(c2ccc3c(c2)CN(c2cc(N4CCN(C)CC4)nc(N)n2)C(C)C3)CC1 (stereo not drawn) [Example 146, 4-[7-(1-Acetylpiperidin-4-yl)-3-methyl-3,4-dihydroisoquinolin-2 (1H)-yl]-6-(4-methylpiperazin-1-yl)pyrimidin-2-amine] | 22.8 | 
